Test results taken from article PMC6934700, “Structure-Guided Design of a Fluorescent Probe for the Visualization of FtsZ in Clinically Important Gram-Positive and Gram-Negative Bacterial Pathogens” (Scientific Reports, 2019).
≈ marks a conversion by molar mass, not a printed value.

Assays:
[1] = molecular target: T1, FtsZ in S. aureus NRS705 cells (Staphylococcus aureus, UniProt P0A031); assay type: cell-based; details: 1 µg/mL for 5 minutes
T1 construct: endogenous in cells; host or cells: S. aureus NRS705 (USA100 MRSA)
Procedure: (§1) All differential interference contrast (DIC) and fluorescence microscopy experiments were conducted using an Olympus BX50 microscope equipped with an X-cite Exacte 200 W mercury lamp, a 100× Olympus UPLSAPO oil immersion objective (1.40 aperture), as well as both Chroma ET-EGFP (FITC/Cy2) and ET mCherry, Texas Red filters. Images were captured using a QImaging Retiga R3 charge-coupled device (CCD) camera and the Ocular-Version 2.0 software package (QImaging).
For visualizing FtsZ in Gram-positive bacteria using BOFP, the bacterial cells were grown to log-phase in media suitable for each individual pathogen. Specifically, S. aureus NRS705 (MRSA) was grown in tryptic soy broth (TSB), E. faecalis ATCC 29212 and E. faecium ATCC 19434 were grown in lactobacilli MRS broth, S. agalactiae ATCC 12386 and S. pneumoniae ATCC 49619 were grown in TH broth, and S. pyogenes ATCC 19615 was grown in CAMH broth supplemented with 3% (v/v) LHB. For each Gram-positive bacterial strain, a total of 1 mL of cell culture was centrifuged at 15,000 × g for 1 minute and washed 2–3 times with 1 mL of PBS. After the final wash, the pelleted cells were resuspended in 500 µL of PBS containing 1 µg/mL of BOFP and incubated in the dark for 5 minutes at room temperature. The cells were then centrifuged at 15,000 × g for 1 minute, washed twice with 1 mL of PBS, and subsequently resuspended in 200 µL of PBS. […]

S. pyogenes (SpyFtsZ) = S. pyogenes (SpyFtsZ) (Streptococcus pyogenes, UniProt Q99YV7); experiment: Fluorescence anisotropy binding of BOFP to SpyFtsZ; details: 0.1 µM compound, 10 µM SpyFtsZ, 37 °C
Procedure: (§2) Fluorescence anisotropy experiments were performed using an AVIV model ATF105 spectrofluorometer at 15, 25, or 37 °C. In these experiments, bandwidths were set to 4 nm in both the excitation and emission directions, with the excitation and emission wavelengths being set at 488 nm and 510 nm, respectively. BOFP (0.1 µM) was titrated with increasing concentrations (ranging from 0 to 12 µM) of FtsZ in 120 µL of buffer containing 50 mM Tris-HCl (pH 7.6) and 50 mM KCl. After each protein addition, the samples were equilibrated for 3 minutes, whereupon the fluorescence anisotropy was measured.
(§3) In this equation, r0 is the anisotropy of the protein-free compound, r∞ is the anisotropy of the compound in the presence of an infinite concentration of FtsZ, [C]tot is the total concentration of the compound, and [P]tot is the total concentration of protein with each addition. These analyses yielded the equilibrium dissociation constant (Kd) for each binding reaction.
(§4) The binding free energy (ΔG) at temperature T was derived from the corresponding Kd value determined at T using the following relationship:2 ΔG=−RTln(1/Kd)
(§5) The binding enthalpy (ΔH) and entropy (ΔS) were derived from linear fits of the ln(1/Kd) vs. 1/T plots shown in Figs. 3f and 5e using the following relationship:3 ln(1/Kd)=−ΔH/R(1/T)+ΔS/R
(§6) In comparative control experiments, the anisotropy of 0.1 µM BODIPY FL-COOH or BOFP alone or in the presence of SaFtsZ (10 µM), SpyFtsZ (10 µM), KpFtsZ (2 µM), or PaFtsZ (2 µM) was measured at 37 °C in the same buffer described above.

[2] = test system: FtsZ in K. pneumoniae ATCC 13883 cells; experiment: FtsZ visualization by fluorescence microscopy in live cells; assay type: cell-based, Klebsiella pneumoniae; details: 1 µg/mL for 5 minutes, co-treated with 3.5 mg/mL pentamidine isethionate
Procedure: as §1
For visualizing FtsZ in Gram-negative bacteria using BOFP, E. coli ATCC 25922, K. pneumoniae ATCC 13883, P. aeruginosa ATCC 27853, and A. baumannii ATCC 19606 were grown to log-phase in CAMH broth. For each Gram-negative bacterial strain, a total of 1 mL of cell culture was centrifuged at 15,000 × g for 1 minute and washed twice with 1 mL of Tris-buffered saline (TBS) composed of 50 mM Tris-HCl (pH 7.6) and 150 mM NaCl. After the final wash, the pelleted cells were resuspended in 500 µL of TBS containing 1 µg/mL of BOFP and pentamidine isethionate (at 0.875 mg/mL for E. coli and 3.5 mg/mL for the other three strains). The resuspended cells were then incubated in the dark for 5 minutes at room temperature, centrifuged at 15,000 × g for 1 minute, washed twice with 1 mL of TBS, and subsequently resuspended in 200 µL of TBS. This final cell suspension was then prepared for microscopy as described for the Gram-positive bacterial strains. Comparative control experiments with 1 µg/mL BODIPY FL-COOH were conducted in K. pneumoniae ATCC 13883 cells as described above for BOFP.

P. aeruginosa (PaFtsZ) = molecular target: T2, P. aeruginosa (PaFtsZ) (Pseudomonas aeruginosa, UniProt P47204); experiment: Fluorescence anisotropy binding of BOFP to PaFtsZ; details: 0.1 µM compound, 2 µM PaFtsZ, 37 °C
T2 construct: 6xHis (C); made in house; host or cells: E. coli BLR (DE3), pET-22b(+)
T2 sequence (P47204 1-394): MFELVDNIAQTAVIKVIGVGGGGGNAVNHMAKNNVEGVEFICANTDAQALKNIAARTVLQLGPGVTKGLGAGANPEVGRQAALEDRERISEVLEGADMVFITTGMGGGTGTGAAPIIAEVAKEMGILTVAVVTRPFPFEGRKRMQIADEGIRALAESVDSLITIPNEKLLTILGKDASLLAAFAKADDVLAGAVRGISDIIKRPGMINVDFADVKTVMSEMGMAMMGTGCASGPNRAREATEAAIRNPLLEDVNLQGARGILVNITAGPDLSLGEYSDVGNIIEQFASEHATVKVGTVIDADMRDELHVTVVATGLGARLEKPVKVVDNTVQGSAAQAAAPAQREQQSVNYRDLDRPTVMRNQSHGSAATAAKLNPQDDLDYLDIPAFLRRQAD
Procedure: as §2, §3, §4, §5, §6

K. pneumoniae (KpFtsZ) = K. pneumoniae (KpFtsZ) (Klebsiella pneumoniae, UniProt A0A0H3GRR0); experiment: Fluorescence anisotropy binding of BOFP to KpFtsZ; details: 0.1 µM compound, 2 µM KpFtsZ, 37 °C
Procedure: as §2, §3, §4, §5, §6

S. aureus (SaFtsZ) = molecular target: T3, S. aureus (SaFtsZ) (Staphylococcus aureus, UniProt P0A031); experiment: biochemical; assay type: binding; details: 0.1 µM compound, 10 µM SaFtsZ, 37 °C
T3 construct: 6xHis (C); made in house; host or cells: E. coli BLR (DE3), pET-22b(+)
T3 sequence (P0A031 1-390): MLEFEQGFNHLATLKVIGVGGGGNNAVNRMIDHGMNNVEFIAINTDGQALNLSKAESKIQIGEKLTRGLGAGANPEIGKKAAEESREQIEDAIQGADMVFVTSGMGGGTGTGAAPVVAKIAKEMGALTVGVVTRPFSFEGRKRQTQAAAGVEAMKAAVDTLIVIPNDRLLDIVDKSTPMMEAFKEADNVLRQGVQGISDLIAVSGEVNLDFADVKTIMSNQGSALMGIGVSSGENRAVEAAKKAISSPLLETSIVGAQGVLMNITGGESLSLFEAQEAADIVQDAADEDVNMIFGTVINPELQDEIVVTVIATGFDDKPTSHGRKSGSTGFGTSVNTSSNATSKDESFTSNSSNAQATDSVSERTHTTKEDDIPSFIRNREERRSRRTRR
Procedure: as §2, §3, §4, §5
The impact of guanosine nucleotide and magnesium on the binding of BOFP to SaFtsZ was assessed at 37 °C in the same buffer described above. In these studies, the anisotropy of 0.1 µM BOFP alone or in the presence of 10 µM SaFtsZ was measured, with the latter also being measured in the presence of 0.1 mM GMPCPP (a non-hydrolyzable GTP analog), 10 mM MgCl2, or both.
as §6

S. aureus NRS705 (MRSA) = experiment: MIC assay by broth microdilution; assay type: cell-based, Staphylococcus aureus; details: for 4× MIC: S. aureus NRS705, concentration equal to four times the MIC; for MIC: Staphylococcus aureus, MRSA NRS705, TH broth, ≥90% growth inhibition after 18-24 hours
Procedure: MIC assays of 1, 3, and BOFP were conducted by standard broth microdilution in TH media. Briefly, log-phase S. aureus NRS705 (MRSA) cells were added to 96-well microtiter plates (at 5 × 10^5 CFU/mL) containing 2-fold serial dilutions of each test compound in 0.1 mL of TH broth, with each compound concentration being present in duplicate. The MIC is defined as the lowest compound concentration at which growth is ≥90% inhibited after 18-24 hours of aerobic growth.

MRSA LAC FtsZ-mCherry = experiment: MIC (stated as 4× MIC used for treatment); assay type: cell-based, Staphylococcus aureus; details: concentration equal to four times the MIC
K. pneumoniae ATCC 10031 [3] = experiment: MIC (stated as 4× MIC used for treatment); assay type: cell-based, Klebsiella pneumoniae; details: concentration equal to four times the MIC
E. coli N43 [4] = experiment: MIC (stated as 4× MIC used for treatment); assay type: cell-based, Escherichia coli; details: concentration equal to four times the MIC
K. pneumoniae ATCC 10031 [5] = experiment: Impact of FtsZ inhibitor treatment on cell morphology and FtsZ localization (DIC/fluorescence microscopy, BOFP labeling); assay type: cell-based, Klebsiella pneumoniae; details: treated at 4x MIC for 3 hours
Procedure: as §1
(§7) To visualize the impact of treatment with the FtsZ inhibitor 1 using BOFP, S. aureus NRS705 (MRSA), E. coli N43, and K. pneumoniae ATCC 10031 were grown to log-phase in CAMH broth and diluted to an OD600 of 0.1. […] Following this treatment, 1–5 mL of each culture was centrifuged at 15,000 × g for 1 minute and washed twice with 1 mL of PBS (for S. aureus) or TBS (for E. coli and K. pneumoniae). The resulting S. aureus cell pellets were further processed and labeled with BOFP as described above for the Gram-positive bacterial strains and the resulting E. coli and K. pneumoniae cell pellets were further processed and labeled with BOFP as described above for the Gram-negative bacterial strains. The impact of treating S. aureus NRS705 cells with the FtsZ inhibitors PC190723 and TXA707 at 4× MIC (2 µg/mL for PC190723 and 4 µg/mL for TXA707) was also examined using BOFP as described above.

S. aureus NRS705 = experiment: as above; assay type: cell-based, Staphylococcus aureus; details: treated at 4x MIC for 3 hours
Procedure: as §1, §7

E. coli N43 [6] = experiment: as above; assay type: cell-based, Escherichia coli; details: treated at 4x MIC for 3 hours
Procedure: as §1, §7

K. pneumoniae (KpFtsZ), sequence (A0A0H3GRR0 entry or part of it): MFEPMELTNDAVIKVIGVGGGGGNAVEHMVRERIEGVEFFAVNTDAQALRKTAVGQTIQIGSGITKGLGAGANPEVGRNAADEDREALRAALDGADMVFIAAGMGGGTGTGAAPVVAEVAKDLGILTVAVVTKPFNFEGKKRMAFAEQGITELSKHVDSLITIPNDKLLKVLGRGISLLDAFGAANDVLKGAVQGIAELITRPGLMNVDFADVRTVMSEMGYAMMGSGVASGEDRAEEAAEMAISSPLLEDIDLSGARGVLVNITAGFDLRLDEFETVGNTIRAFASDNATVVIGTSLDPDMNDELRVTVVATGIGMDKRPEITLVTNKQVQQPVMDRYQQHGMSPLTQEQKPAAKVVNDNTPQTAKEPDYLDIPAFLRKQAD
S. pyogenes (SpyFtsZ), sequence (Q99YV7 entry or part of it): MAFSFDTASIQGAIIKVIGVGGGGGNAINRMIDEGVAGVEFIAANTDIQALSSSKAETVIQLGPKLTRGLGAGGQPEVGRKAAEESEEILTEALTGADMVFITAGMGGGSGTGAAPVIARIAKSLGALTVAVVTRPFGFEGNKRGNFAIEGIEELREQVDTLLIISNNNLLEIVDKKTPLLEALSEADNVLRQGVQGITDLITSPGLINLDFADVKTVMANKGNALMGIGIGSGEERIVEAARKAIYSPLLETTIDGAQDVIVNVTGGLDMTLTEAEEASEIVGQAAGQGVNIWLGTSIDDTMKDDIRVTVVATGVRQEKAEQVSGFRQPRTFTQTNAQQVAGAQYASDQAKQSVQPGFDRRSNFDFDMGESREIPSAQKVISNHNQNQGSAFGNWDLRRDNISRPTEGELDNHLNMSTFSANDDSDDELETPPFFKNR

SMILES: CC1=CC(C)=[N+]2C1=Cc1ccc(CCC(=O)O)n1[B-]2(F)F [BODIPY FL-COOH, 3-(5,5-difluoro-7,9-dimethyl-5H-5λ^4,6λ^4-dipyrrolo[1,2-c:2′,1′-f][1,3,2]diazaborinin-3-yl)propanoic acid, reference compound]
- Fluorescence staining / FtsZ labeling in live cells [1]: no fluorescence staining of the S. aureus cells was detectable
- Binding interaction (fluorescence anisotropy change on adding FtsZ) (S. pyogenes (SpyFtsZ)): no such binding interactions were observable
- Fluorescence staining / FtsZ labeling in live cells [2]: no such FtsZ staining was detectable
- Binding interaction (fluorescence anisotropy change on adding FtsZ) (P. aeruginosa (PaFtsZ)): no binding interactions with BODIPY FL-COOH were detectable
- Binding interaction (fluorescence anisotropy change on adding FtsZ) (K. pneumoniae (KpFtsZ)): no binding interactions with BODIPY FL-COOH were detectable
- Binding interaction (fluorescence anisotropy change on adding FtsZ) (S. aureus (SaFtsZ)): No such anisotropy change was observed

SMILES: NC(=O)c1c(F)ccc(OCc2nc3cc(C(F)(F)F)cnc3s2)c1F [TXA707]
- 4× MIC (S. aureus NRS705 (MRSA)): 4 µg/mL

SMILES: NC(=O)c1c(F)ccc(OC(CO)c2nc(-c3ccc(C(F)(F)F)cc3)c(Br)o2)c1F (centres unmarked) [compound 3]
- MIC (S. aureus NRS705 (MRSA)): 0.5 µg/mL (≈ 0.986 µM)

SMILES: NC(=O)c1c(F)ccc(OCc2nc(-c3ccc(C(F)(F)F)cc3)c(Br)o2)c1F [compound 1]
- 4× MIC (S. aureus NRS705 (MRSA)): 1 µg/mL
- MIC (S. aureus NRS705 (MRSA)): 0.25 µg/mL (≈ 0.524 µM)
- 4× MIC (MRSA LAC FtsZ-mCherry): 0.25 µg/mL
- 4× MIC (K. pneumoniae ATCC 10031 [3]): 4 µg/mL
- 4× MIC (E. coli N43 [4]): 4 µg/mL
- Change in cell morphology (K. pneumoniae ATCC 10031 [5]): filamentation
- FtsZ localization visualized with BOFP (K. pneumoniae ATCC 10031 [5]; then 1 µg/mL BOFP with 3.5 mg/mL pentamidine isethionate for 5 minutes): clear mislocalization of FtsZ and an absence of Z-rings
- Change in cell morphology (S. aureus NRS705): cell enlargement
- FtsZ localization visualized with BOFP (S. aureus NRS705; then 1 µg/mL BOFP for 5 minutes): clear mislocalization of FtsZ and an absence of Z-rings
- Change in cell morphology (E. coli N43 [6]): filamentation
- FtsZ localization visualized with BOFP (E. coli N43 [6]; then 1 µg/mL BOFP with 0.875 mg/mL pentamidine isethionate for 5 minutes): clear mislocalization of FtsZ and an absence of Z-rings

SMILES: NC(=O)c1c(F)ccc(OCc2nc3cc(Cl)cnc3s2)c1F [PC190723]
- 4× MIC (S. aureus NRS705 (MRSA)): 2 µg/mL
